Key:
[1] = target: T1, σ1R (Cavia porcellus, UniProt Q60492); test: σ1R radioligand binding assay with [3H]-(+)-pentazocine, Guinea pig brain homogenates; settings: mean ± SEM, at least three experiments
T1 construct: from tissue; host or cells: Guinea pig brain homogenate
Protocol: (§1) Radioligand binding assays were conducted using [^125I]RHM-4 with rat liver homogenates for σ2R-binding properties and a σ1R assay using [^3H]-(+)-pentazocine with Guinea pig brain homogenates. Evaluation of the compounds in the in vitro radioligand binding studies was conducted using a two-step process. […] Compounds displaying ≥ 50% displacement of radioligand binding in σ1 and σ2 assays (Table 1) were chosen for full competition studies using 10 different concentrations of the displacer. A representative competition curve at σ1 and σ2 receptors is shown for compound 2t in Figure 2.
(§2) For screening, [^3H]-(+)-pentazocine (~50,000 cpm) or [^125I]RHM-4 (~200,000 cpm) was mixed with 100 nM of tested compounds. Guinea pig brain homogenates (100 µg) or rat liver homogenates (15 µg) were added to mixture and incubated at 37 °C for 90 min. The mixture was filtered by harvester and washed 3 times using cold washing buffer (10 mM Tris-HCl, 150 mM NaCl). Collected filter was mixed with 3 mL of microscintTM20 and counted 1 min/well using beta counter. […] After that, protein was added and incubated at 37 °C for 90 min. The bound form was filtered by Whatman CF/C filter which was soaked in 1% of polyethyleneimine (PEI) in DW and then filters were washed tree times with cold washing buffer. The non-specific binding was determined in the presence of 10 µM of haloperidol or cold RHM-4. Filter was collected and read by scintillation counting (MicroBeta2 ®, PerkinElmer, Beaconsfield, UK) or gamma counter (PerkinElmer, Beaconsfield, UK). The data were analyzed using PRISM 8 (GraphPad Inc., San Diego, CA, USA).

[2] = target: T2, σ2R (Rattus norvegicus, UniProt Q5U3Y7); test: σ2R radioligand binding assay with [125I]RHM-4, rat liver homogenates; settings: for Ki: rat liver homogenates, [125I]RHM-4, mean ± SEM, at least three experiments; for σ1/σ2 Ratio: ratio of Ki σ1R to Ki σ2R
T2 construct: from tissue; host or cells: rat liver homogenate
T2 sequence (Q5U3Y7 1-176): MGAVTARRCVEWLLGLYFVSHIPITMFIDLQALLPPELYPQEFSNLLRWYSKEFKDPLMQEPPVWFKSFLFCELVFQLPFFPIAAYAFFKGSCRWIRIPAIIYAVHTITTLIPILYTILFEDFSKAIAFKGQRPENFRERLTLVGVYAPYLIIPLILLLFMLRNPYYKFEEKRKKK
Protocol: as §1, §2

[3] = target: σ2R; settings: Figure 1; cited from earlier work
[4] = target: σ1R; settings: Figure 1; cited from earlier work
[5] = target: T2, σ2R; test: σ2R radioligand binding assay with [125I]RHM-4, rat liver homogenates; settings: three-point screening assay (10 nM, 100 nM, 1 μM)

T1 sequence (Q60492 whole entry): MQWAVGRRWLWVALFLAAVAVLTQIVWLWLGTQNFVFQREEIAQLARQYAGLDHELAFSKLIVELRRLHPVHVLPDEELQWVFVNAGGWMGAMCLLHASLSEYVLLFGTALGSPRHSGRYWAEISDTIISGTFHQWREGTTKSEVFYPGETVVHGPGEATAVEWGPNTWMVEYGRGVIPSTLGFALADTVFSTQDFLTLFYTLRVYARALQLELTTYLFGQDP

Structure (SMILES) | Ki [1] | Ki [2] | σ1/σ2 Ratio [2] | Ki [3] | Ki [4] | affinity for the σ2R (in words) [5]
Cn1c(=O)n(CCCCN2CC3(C2)CN(c2ccc(F)cc2)C3)c2ccccc21 [Compound 2o] | 45.9 ± 6.8 nM | 40 ± 3.2 nM | 1.1 | – | – | –
CCN(c1ccc(F)cc1)C1CN(CCCCn2c(=O)n(C)c3ccccc32)C1 [Compound 2u] | 279 ± 30.7 nM | 18.8 ± 1.6 nM | 15 | – | – | –
Cn1c(=O)n(CCCCN2CCCN(c3ccc(F)cc3)CC2)c2ccccc21 [Compound 2t] | 255 ± 29.9 nM | 3.8 ± 0.9 nM | 67 | – | – | –
Cn1c(=O)n(CCCCN2CCN(c3cccc(F)c3)CC2)c2ccccc21 [Compound 7, reference compound] | 702 ± 272 nM | 2 ± 0.6 nM | 351 | – | – | –
COc1cc2c(cc1OC)CN(CCCCNC(=O)c1cc(I)cc(OC)c1OC)CC2 [RHM-4] | – | – | – | 1 nM | 554 nM | –
Cn1c(=O)n(CCCCN2CCC3(CC2)CCN(c2ccccc2F)CC3)c2ccccc21 [Compound 2e] | 659 ± 84.2 nM | 24.4 ± 3.3 nM | 27 | – | – | –
Cn1c(=O)n(CCCCN2CC3CCCC(C2)N3c2ccc(F)cc2)c2ccccc21 [Compound 2p] | – | – | – | – | – | low affinity
Cn1c(=O)n(CCCCN2CC3CCN(c4ccc(F)cc4)C3C2)c2ccccc21 (stereo not shown) [Compound 2s] | – | – | – | – | – | low affinity
Cn1c(=O)n(CCCCN2CCN(c3ccc(F)cc3)CC2)c2ccccc21 [Compound 1, reference compound] | 251 ± 48.1 nM | – | 279 | – | – | –
Cn1c(=O)n(CCCCN2CC3(C2)CN(c2ccccc2F)C3)c2ccccc21 [Compound 2n] | 20.5 ± 3.3 nM | 41.8 ± 7.5 nM | 0.5 | – | – | –
COc1ccc(C)cc1NC(=O)OC1CC2CCCC(C1)N2CCCCCCN (stereo not shown) [SV 119] | – | – | – | 5.19 ± 0.8 nM | 1420 ± 439 nM | –
COc1cccc2c1CCCC2CCCN1CCN(C2CCCCC2)CC1 (stereo not shown) [PB28, 1-cyclohexyl-4-[3-(5-methoxy-1,2,3,4-tetrahydronaphthalen-1-yl)propyl]piperazine] | – | – | – | 0.68 ± 0.2 nM | 0.38 ± 0.1 nM | –
Fc1ccc(-n2cc(CCCCN3CCC4(CC3)OCc3ccccc34)c3ccccc32)cc1 [Siramesine] | – | – | – | 0.12 nM | 17 nM | –
Cn1c(=O)n(CCCCN2CC3CC2CN3c2ccc(F)cc2)c2ccccc21 (stereo not shown) [Compound 2r] | 712 ± 135 nM | 10.7 ± 1.8 nM | 66 | – | – | –
Cn1c(=O)n(CCCCN2CC3CCC(C2)N3c2ccc(F)cc2)c2ccccc21 [Compound 2q] | – | – | – | – | – | low affinity
